From patent US20100009956A1, “NOVEL SUBSTITUTED PYRIMIDINES AS CYSTEINE PROTEASE INHIBITORS” (Glaxo Group Limited , a corporation, priority 2006, published 2010)
Structures can show the parent of a compound that is named as a salt. Where two headings read alike, the source gives them in different places.

Tests used:
Assay type in all cases: biochemical
Falcipain-2 = Falcipain-2 (Plasmodium falciparum, UniProt Q8I6U4); assay: Falcipain-2 enzymatic assay (assay 1)
Method: (§1) Assay 1) Determination of Falcipain-2, Falcipain-3, Vivapain-2, Cathepsin K Cathepsin S, Cathepsin L, and Cathepsin B Proteolytic Catalytic Activity
(§2) Assays for Falcipain-2, Falcipain-3, and Vivapain-2 are carried out with parasitic recombinant enzymes. Cathepsins K, S, L, and B are carried out with human recombinant enzymes. Standard assay conditions for the determination of kinetic constants used a fluorogenic peptide substrate, typically H-D-VLR-AFC (Falcipain-2, Falcipain-3, Vivapain-2), Z-FR-AFC (Cathepsin K, L, B), or KQKLR-AMC (Cathepsin S) and are determined in 100 mM sodium acetate, pH 5.5, containing 10 mM DTT and 0.5 mM CHAPS (Falcipain-2, Falcipain-3, Vivapain-2), and 100 mM sodium acetate, pH 5.5, containing 5 mM L-cysteine, 1 mM CHAPS and 5 mM EDTA (Cathepsin K, L, B), or 50 mM MES, pH 6.5, containing 0.5 mM CHAPS, 10 mM L-CYS, 5 mM EDTA (Cathepsin S). Stock substrate solutions are prepared at 20 mM in DMSO. The activity assays contained 30 uM substrate (Falcipain-2, Falcipain-3, Vivapain-2), 20 uM substrate (Cathepsin K), 25 uM substrate (Cathepsin B), 5 uM substrate (Cathepsin L), and 30 uM substrate (Cathepsin S). All assays contained 1% DMSO. […] All assays are conducted at ambient temperature as end point assays being quenched after 60 minutes with the exception of Cathepsin S at 90 minutes, with 16.6 uM E-64 in 1% DMSO. Product formation (AFC or AMC) is determined from fluorescence (excitation at 405 nm; emission at 530 nm, AFC, or excitation at 360 nm; emission at 460 nm, AMC) monitored with a LJL Aquest (Molecular Devices) fluorescent plate reader. In the case of kinetic reads (used in mechanism of action studies), the reaction is not quenched but is read in the plate reader every 3 minutes for approximately 90 minutes. In addition, the mechanism of action studies for Falcipain-2 utilize Z-LR-AMC as the substrate. Product formation is determined from the fluorescence of AMC, measured with a LJL Acquest (Molecular Devices) fluorescent plate reader (excitation at 360 nm; emission at 460 nm).
(§3) Potential inhibitors are evaluated using the quenched read (endpoint) method. Assays are carried out in the presence of variable concentrations of test compound. Reactions are initiated by addition of enzyme and substrate to wells containing inhibitor stamped in 100% DMSO. For endpoint assays, the reaction is quenched with the addition of E64. Dose response data is fit to an IC50 curve with preset fitting tools according to equation 1:
(§4) y=a+(b−a)/(1+(10^x/10^c)^d) (1)
(§5) where y is the response at a particular inhibitor concentration x, a is the minimum response value, b is the maximum response value, c is the IC50, and d is the slope of the IC50 curve. Assuming the compound is a competitive inhibitor, the apparent KI can be calculated from IC50, as shown in equation 2: […]

Falcipain-3 = Falcipain-3 (Plasmodium falciparum, UniProt Q8IIL0); assay: Falcipain-3 enzymatic assay (assay 1)
Method: as §1, §2, §3, §4, §5

Cathepsin K = target: T1, Cathepsin K (Homo sapiens, UniProt P43235); assay: Cathepsin K enzymatic assay (assay 1); conditions: human recombinant enzyme, Z-FR-AFC substrate, pH 5.5
T1 sequence (P43235 115-329): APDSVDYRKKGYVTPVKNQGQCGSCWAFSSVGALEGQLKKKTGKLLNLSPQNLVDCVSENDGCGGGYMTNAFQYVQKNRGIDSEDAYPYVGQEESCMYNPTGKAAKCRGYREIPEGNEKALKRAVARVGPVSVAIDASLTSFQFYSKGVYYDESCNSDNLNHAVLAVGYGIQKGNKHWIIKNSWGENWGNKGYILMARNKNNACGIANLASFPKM
Method: as §1, §2, §3, §4, §5

Sequence of Falcipain-2 (Q8I6U4 244-484): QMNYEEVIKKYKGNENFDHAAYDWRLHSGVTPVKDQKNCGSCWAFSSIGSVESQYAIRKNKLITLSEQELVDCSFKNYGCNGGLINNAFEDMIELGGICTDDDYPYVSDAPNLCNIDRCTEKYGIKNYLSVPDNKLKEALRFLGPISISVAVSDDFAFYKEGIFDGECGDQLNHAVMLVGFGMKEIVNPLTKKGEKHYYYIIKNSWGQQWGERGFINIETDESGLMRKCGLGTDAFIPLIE
Sequence of Falcipain-3 (Q8IIL0 243-492): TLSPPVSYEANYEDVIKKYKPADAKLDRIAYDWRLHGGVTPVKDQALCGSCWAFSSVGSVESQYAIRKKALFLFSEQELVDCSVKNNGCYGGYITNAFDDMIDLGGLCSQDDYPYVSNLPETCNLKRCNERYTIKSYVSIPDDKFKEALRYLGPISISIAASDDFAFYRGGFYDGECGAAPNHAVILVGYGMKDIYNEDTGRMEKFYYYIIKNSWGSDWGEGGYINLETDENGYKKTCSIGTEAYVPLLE

SMILES: CC1CCC(N(NC(=O)c2ccc(CN3CCN(C)CC3)cc2)c2nc(C#N)ncc2Br)C1 (mixture of isomers) [Example 26, N′-(5-bromo-2-cyano-4-pyrimidinyl)-N′-(3-methylcyclopentyl)-4-[(4-methyl-1-piperazinyl)methyl]benzohydrazide trifluoroacetate]
- IC50 (Falcipain-2): < 1 nM
- IC50 (Falcipain-3): 15 to 150 nM

SMILES: C[C@@H]1CCC[C@H]1N(NC(=O)c1ccc(F)cc1)c1nc(C#N)ncc1Br (racemic) [Example 43, N′-(5-bromo-2-cyano-4-pyrimidinyl)-4-fluoro-N′-[(1R,2R+1S,2S))-2-methylcyclopentyl]benzohydrazide trifluoroacetate]
- IC50 (Falcipain-2): < 1 nM
- IC50 (Cathepsin K): < 17 nM
- IC50 (Falcipain-3): 2.5 to 15 nM

SMILES: CN1CCN(Cc2ccc(C(=O)NN(CC(C)(C)C)c3nc(C#N)ncc3Br)cc2)CC1 [Comparative Example 39, N′-(5-bromo-2-cyano-4-pyrimidinyl)-N′-(2,2-dimethylpropyl)-4-[(4-methyl-1-piperazinyl)methyl]benzohydrazide trifluoroacetate, reference compound]
- IC50 (Falcipain-2): 15 to 150 nM
- IC50 (Falcipain-3): 150 to 250 nM

SMILES: C[C@H]1CCC[C@H]1N(NC(=O)c1ccc(CN2CCN(C)CC2)cc1)c1nc(C#N)ncc1Br [Example 2, N′-(5-bromo-2-cyano-4-pyrimidinyl)-N′-[(1 R,2S+1S,2R)-2-methylcyclopentyl]-4-[(4-methyl-1-piperazinyl)methyl]benzohydrazide trifluoroacetate]
- IC50 (Falcipain-2): 1 to 2.5 nM
- IC50 (Cathepsin K): < 17 nM
- IC50 (Falcipain-3): 15 to 150 nM

SMILES: C[C@@H]1CCC[C@H]1N(NC(=O)c1ccc(CN2CCN(C)CC2)cc1)c1nc(C#N)ncc1Br [Example 3, N′-(5-bromo-2-cyano-4-pyrimidinyl)-N′-[(1R,2R+1S,2S)-2-methylcyclopentyl]-4-[(4-methyl-1-piperazinyl)methyl]benzohydrazide trifluoroacetate]
- IC50 (Falcipain-2): < 1 nM
- IC50 (Cathepsin K): < 1.5 nM
- IC50 (Falcipain-3): 2.5 to 15 nM

SMILES: N#Cc1ncc(Br)c(N(NC(=O)c2ccc(CN3CCC(N4CCOCC4)CC3)cc2)C2CCCC2)n1 [Example 6, N′-(5-bromo-2-cyano-4-pyrimidinyl)-N′-cyclopentyl-4-{([4-(4-morpholinyl)-1-piperidinyl]methyl}benzohydrazide trifluoroacetate]
- IC50 (Falcipain-2): < 1 nM
- IC50 (Cathepsin K): < 1.5 nM
- IC50 (Falcipain-3): 2.5 to 15 nM

SMILES: CN1CCC(CN2CCN(Cc3ccc(C(=O)NN(c4nc(C#N)ncc4Br)C4CCCC4)cc3)CC2)CC1 [Example 7, N′-(5-bromo-2-cyano-4-pyrimidinyl)-N′-cyclopentyl-4-({4-[(1-methyl-4-piperidinyl)methyl]-1-piperazinyl}methyl)benzohydrazide trifluoroacetate]
- IC50 (Falcipain-2): < 1 nM
- IC50 (Cathepsin K): < 1.5 nM
- IC50 (Falcipain-3): 2.5 to 15 nM

SMILES: CN1CCCC(CN2CCN(Cc3ccc(C(=O)NN(c4nc(C#N)ncc4Br)C4CCCC4)cc3)CC2)C1 (centres unmarked) [Example 8, N′-(5-bromo-2-cyano-4-pyrimidinyl)-N′-cyclopentyl-4-({4-[(1-methyl-3-piperidinyl)methyl]-1-piperazinyl}methyl)benzohydrazide trifluoroacetate]
- IC50 (Falcipain-2): < 1 nM
- IC50 (Cathepsin K): < 1.5 nM
- IC50 (Falcipain-3): 2.5 to 15 nM

SMILES: CN1CCN(C(=O)C2CCN(Cc3ccc(C(=O)NN(c4nc(C#N)ncc4Br)C4CCCC4)cc3)CC2)CC1 [Example 9, N′-(5-bromo-2-cyano-4-pyrimidinyl)-N′-cyclopentyl-4-({4-[(4-methyl-1-piperazinyl)carbonyl]-1-piperidinyl}methyl)benzohydrazide trifluoroacetate]
- IC50 (Falcipain-2): < 1 nM
- IC50 (Cathepsin K): < 1.5 nM
- IC50 (Falcipain-3): 2.5 to 15 nM

SMILES: N#Cc1ncc(Br)c(N(NC(=O)c2cccc(CN3CCC(N4CCOCC4)CC3)c2)C2CCCC2)n1 [Example 13, N′-(5-bromo-2-cyano-4-pyrimidinyl)-N′-cyclopentyl-3-{[4-(4-morpholinyl)-1-piperidinyl]methyl}benzohydrazide trifluoroacetate]
- IC50 (Falcipain-2): < 1 nM
- IC50 (Falcipain-3): 2.5 to 15 nM

SMILES: CN1CCN(Cc2ccc(C(=O)NN(c3nc(C#N)ncc3Br)C3CCOCC3)cc2)CC1 [Example 42, N′-(5-bromo-2-cyano-4-pyrimidinyl)-4-[(4-methyl-1-piperazinyl)methyl]-N′-(tetrahydro-2H-pyran-4-yl)benzohydrazide trifluoroacetate]
- IC50 (Falcipain-2; parasitic recombinant enzyme, H-D-VLR-AFC substrate, pH 5.5, endpoint read, read-out: Falcipain-2 IC50): < 1 nM
- IC50 (Falcipain-3): 15 to 150 nM

SMILES: CN1CCN(C2CCN(Cc3ccc(C(=O)NN(c4nc(C#N)ncc4Br)C4CCN(C(=O)OCc5ccccc5)CC4)cc3)CC2)CC1 [Example 48, Phenylmethyl 4-{1-(5-bromo-2-cyano-4-pyrimidinyl)-2-[(4-{[4-(4-methyl-1-piperazinyl)-1-piperidinyl]methyl}phenyl)carbonyl]hydrazino}-1-piperidinecarboxylate triflouroacetate]
- IC50 (Falcipain-2): 1 to 2.5 nM
- IC50 (Falcipain-3): 2.5 to 15 nM

SMILES: CN(CCO)Cc1ccc(C(=O)NN(c2nc(C#N)ncc2Cl)C2CCCC2)cc1 [Example 58, N′-(5-chloro-2-cyano-4-pyrimidinyl)-N′-cyclopentyl-4-{[(2-hydroxyethyl)(methyl)amino]methyl}benzohydrazide trifluoroacetate]
- IC50 (Falcipain-2): < 1 nM
- IC50 (Falcipain-3): 1 to 2.5 nM

SMILES: CN1CCN(Cc2ccc(C(=O)NN(c3nc(C#N)ncc3Cl)C3CCOCC3)cc2)CC1 [Example 67, N′-(5-chloro-2-cyano-4-pyrimidinyl)-4-[(4-methyl-1-piperazinyl)methyl]-N′-(tetrahydro-2H-pyran-4-yl)benzohydrazide trifluoroacetate]
- IC50 (Falcipain-2): < 1 nM
- IC50 (Falcipain-3): 2.5 to 15 nM

SMILES: CCN(Cc1ccc(C(=O)NN(c2nc(C#N)ncc2Cl)C2CCCC2)cc1)C(C)C [Example 68, N′-(5-chloro-2-cyano-4-pyrimidinyl)-N′-cyclopentyl-4-{[ethyl(1-methylethyl)amino]methyl}benzohydrazide trifluoroacetate]
- IC50 (Falcipain-2): < 1 nM
- IC50 (Falcipain-3): 2.5 to 15 nM

SMILES: CN(Cc1ccc(C(=O)NN(c2nc(C#N)ncc2Cl)C2CCCC2)cc1)C(C)(C)C [Example 73, N′-(5-chloro-2-cyano-4-pyrimidinyl)-N′-cyclopentyl-4-{[(1,1-dimethylethyl)(methyl)amino]methyl}benzohydrazide trifluoroacetate]
- IC50 (Falcipain-2): < 1 nM
- IC50 (Falcipain-3): 2.5 to 15 nM

SMILES: CCN(C)Cc1ccc(C(=O)NN(c2nc(C#N)ncc2Cl)C2CCCC2)cc1 [Example 74, N′-(5-chloro-2-cyano-4-pyrimidinyl)-N′-cyclopentyl-4-{[ethyl(methyl)amino]methyl}benzohydrazide trifluoroacetate]
- IC50 (Falcipain-2): < 1 nM
- IC50 (Falcipain-3): 15 to 150 nM

SMILES: CC(C)N(Cc1ccc(C(=O)NN(c2nc(C#N)ncc2Cl)C2CCCC2)cc1)C1CCCCC1 [Example 75, N′-(5-chloro-2-cyano-4-pyrimidinyl)-4-{[cyclohexyl(1-methylethyl)amino]methyl}-N′-cyclopentylbenzohydrazide trifluoroacetate]
- IC50 (Falcipain-2): < 1 nM
- IC50 (Falcipain-3): 2.5 to 15 nM

SMILES: CN(Cc1ccc(C(=O)NN(c2nc(C#N)ncc2Cl)C2CCCC2)cc1)CC(O)CO (centres unmarked) [Example 76, N′-(5-chloro-2-cyano-4-pyrimidinyl)-N′-cyclopentyl-4-{[(2,3-dihydroxypropyl)(methyl)amino]methyl}benzohydrazide trifluoroacetate]
- IC50 (Falcipain-2): < 1 nM
- IC50 (Falcipain-3): 2.5 to 15 nM

SMILES: CN1CCN(c2cccc(C(=O)NN(c3nc(C#N)ncc3Cl)C3CCCC3)n2)CC1 [Example 78, N′-(5-chloro-2-cyano-4-pyrimidinyl)-N′-cyclopentyl-6-(4-methyl-1-piperazinyl)-2-pyridinecarbohydrazide trifluoroacetate]
- IC50 (Falcipain-2): < 1 nM
- IC50 (Falcipain-3): 15 to 150 nM
